Measurements reported in paper PMC10608614, “Biochemical Insights into a Novel Family 2 Glycoside Hydrolase with Both β-1,3-Galactosidase and β-1,4-Galactosidase Activity from the Arctic” (Marine Drugs, 2023).

Assays:
rMaBGA [1] = biological target: T1, rMaBGA (Marinomonas sp. BSi20584, UniProt Z9SNG8Y577); test: steady-state kinetics, nonlinear Michaelis-Menten fit; galactose by coupled enzymatic assay; format: biochemical; conditions: pH and temperature not stated
T1 construct: predicted signal peptide (first 28 aa) removed; codon-optimised, pET-28a(+), E. coli BL21(DE3), Ni-NTA purified, tag not reported cut; about 100 kDa on SDS-PAGE
T1 sequence (Z9SNG8Y577 29-897): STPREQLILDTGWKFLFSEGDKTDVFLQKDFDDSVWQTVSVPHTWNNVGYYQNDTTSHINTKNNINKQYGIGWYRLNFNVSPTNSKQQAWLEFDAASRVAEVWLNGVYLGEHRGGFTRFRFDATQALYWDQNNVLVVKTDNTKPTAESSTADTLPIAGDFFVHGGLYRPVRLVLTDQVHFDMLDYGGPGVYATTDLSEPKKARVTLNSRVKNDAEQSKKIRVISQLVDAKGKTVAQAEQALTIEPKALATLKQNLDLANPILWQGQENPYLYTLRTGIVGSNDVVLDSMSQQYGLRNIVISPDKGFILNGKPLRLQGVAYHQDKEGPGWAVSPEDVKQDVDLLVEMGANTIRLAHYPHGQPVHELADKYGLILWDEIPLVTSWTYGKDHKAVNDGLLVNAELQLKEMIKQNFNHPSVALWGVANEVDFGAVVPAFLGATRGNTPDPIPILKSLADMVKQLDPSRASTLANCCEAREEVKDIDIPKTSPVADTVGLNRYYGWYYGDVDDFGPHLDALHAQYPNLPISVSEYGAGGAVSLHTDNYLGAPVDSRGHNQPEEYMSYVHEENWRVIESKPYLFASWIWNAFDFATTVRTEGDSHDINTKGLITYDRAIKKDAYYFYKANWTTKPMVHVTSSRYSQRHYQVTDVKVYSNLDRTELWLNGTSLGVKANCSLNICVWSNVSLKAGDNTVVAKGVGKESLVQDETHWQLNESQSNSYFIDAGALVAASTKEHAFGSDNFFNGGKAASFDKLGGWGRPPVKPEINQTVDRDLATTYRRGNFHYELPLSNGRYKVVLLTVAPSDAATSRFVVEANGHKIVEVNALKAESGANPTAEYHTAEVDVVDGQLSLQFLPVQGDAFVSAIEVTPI
Source text: steady-state kinetics, nonlinear Michaelis-Menten fit; galactose by coupled enzymatic assay on rMaBGA

rMaBGA [2] = biological target: T1, rMaBGA; test: steady-state kinetics, nonlinear Michaelis-Menten fit; o-nitrophenol absorbance at […] nm; format: biochemical; conditions: 0.1–10 mM substrate; standard assay 10 mM PBS, 30 °C (not restated for kinetics)

`CC(=O)N[C@H]1C(O)O[C@H](CO)[C@@H](O)[C@@H]1O[C@@H]1O[C@H](CO)[C@H](O)[C@H](O)[C@H]1O` (stereo partly drawn) [Galβ-(1,3)-GlcNAc] was tested, and the Km (rMaBGA [1]; 1–40 mM substrate) was 2110 ± 484 µM.

With `CC(=O)N[C@H]1C(O)O[C@H](CO)[C@@H](O[C@@H]2O[C@H](CO)[C@H](O)[C@H](O)[C@H]2O)[C@@H]1O` (stereo partly drawn) [Galβ-(1,4)-GlcNAc] the Km (rMaBGA [1]; 1–50 mM substrate) was 7020 ± 1180 µM.

In the case of `O=[N+]([O-])c1ccccc1O[C@@H]1O[C@H](CO)[C@H](O)[C@H](O)[C@H]1O` [ONPG], the Km (rMaBGA [2]) is reported as 294 ± 44 µM.
